PMC4310350 (Drug Design, Development and Therapy, 2015)

Biological target: T1, OAT1 (Homo sapiens, UniProt Q4U2R8)
T1 sequence (Q4U2R8 1-563): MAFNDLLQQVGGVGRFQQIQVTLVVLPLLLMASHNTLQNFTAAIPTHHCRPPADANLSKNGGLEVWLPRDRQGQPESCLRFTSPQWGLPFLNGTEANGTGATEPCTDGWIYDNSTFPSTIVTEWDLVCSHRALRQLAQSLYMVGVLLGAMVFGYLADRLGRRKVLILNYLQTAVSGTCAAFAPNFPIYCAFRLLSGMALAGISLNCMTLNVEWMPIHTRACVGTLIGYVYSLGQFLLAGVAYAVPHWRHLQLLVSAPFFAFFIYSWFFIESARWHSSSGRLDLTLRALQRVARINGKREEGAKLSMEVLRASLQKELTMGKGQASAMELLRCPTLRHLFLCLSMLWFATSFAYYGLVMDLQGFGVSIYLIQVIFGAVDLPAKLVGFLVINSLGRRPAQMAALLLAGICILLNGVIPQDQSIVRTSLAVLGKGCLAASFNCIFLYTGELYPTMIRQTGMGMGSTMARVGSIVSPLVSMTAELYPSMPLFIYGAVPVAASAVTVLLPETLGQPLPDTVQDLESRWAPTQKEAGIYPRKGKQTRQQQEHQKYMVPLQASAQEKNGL
Test: Uptake in HEK293 cells overexpressing OAT1
Format: in vitro ADME
Conditions: OAT1, influx

Compound: O=C(O[C@H]1[C@@H]2C=CO[C@@H](O[C@@H]3O[C@H](CO)[C@@H](O)[C@H](O)[C@H]3O)[C@@H]2[C@@]2(CO)O[C@@H]12)c1ccc(O)cc1 [catalposide]
- Substrate: not involved
